Data set [1] can be described thus: Unbound clearance in rat microsomes. In kind it is ADME, Microsome.
Data set [2] addresses Tyrosine-protein kinase ABL1 (Homo sapiens, UniProt P00519). Put plainly: Inhibition of ABL (unknown origin) after 60 mins by TR-FRET assay. On the technique in general: Time-resolved FRET reads energy transfer from a long-lived donor to a nearby acceptor.
The target in data set [3] is ALK tyrosine kinase receptor (Homo sapiens, UniProt Q9UM73). Briefly: Inhibition of ALK (unknown origin) after 60 mins by TR-FRET assay.
In data set [4] the target is Tyrosine-protein kinase BTK (Homo sapiens, UniProt Q06187). Briefly: Inhibition of BTK (unknown origin) after 60 mins by TR-FRET assay.
Data set [5] concerns the target Calcium/calmodulin-dependent protein kinase type 1D (Homo sapiens, UniProt Q8IU85). Briefly: Inhibition of human CAMK1D (unknown origin) after 60 mins by TR-FRET assay.
For data set [6], the target named is Calcium/calmodulin-dependent protein kinase type II subunit alpha (Homo sapiens, UniProt Q9UQM7). Put plainly: Inhibition of human CAMK2A (unknown origin) after 60 mins by TR-FRET assay.
For data set [7], the target named is Cyclin-dependent kinase 8 (Homo sapiens, UniProt P49336). Put plainly: Inhibition of CDK8 (unknown origin) after 60 mins by TR-FRET assay.
The target of data set [8] is Cyclin-dependent kinase 9 (Homo sapiens, UniProt P50750). Put plainly: Inhibition of CDK9 (unknown origin) after 60 mins by TR-FRET assay.
For data set [9], the target named is Dual specificity tyrosine-phosphorylation-regulated kinase 1B (Homo sapiens, UniProt Q9Y463). Briefly: Inhibition of DYRK1B (unknown origin) after 60 mins by TR-FRET assay.
Another data set deals with Focal adhesion kinase 1 (Homo sapiens, UniProt Q05397). Put plainly: Inhibition of FAK (unknown origin) after 60 mins by TR-FRET assay.
Data set [10] deals with G protein-coupled receptor kinase 5 (Homo sapiens, UniProt P34947). Briefly: Inhibition of GRK5 (unknown origin) after 60 mins by TR-FRET assay.
Data set [11] addresses Glycogen synthase kinase-3 alpha (Homo sapiens, UniProt P49840). Put plainly: Inhibition of GSK3A (unknown origin) after 60 mins by TR-FRET assay.
Data set [12] has as its target Rho-associated protein kinase 2 (Homo sapiens, UniProt O75116). Briefly: Inhibition of ROCK2 (unknown origin) after 60 mins by TR-FRET assay.
For data set [13], the target named is T1, Serine/threonine-protein kinase TBK1 (Homo sapiens, UniProt Q9UHD2).
T1 sequence (Q9UHD2 whole entry): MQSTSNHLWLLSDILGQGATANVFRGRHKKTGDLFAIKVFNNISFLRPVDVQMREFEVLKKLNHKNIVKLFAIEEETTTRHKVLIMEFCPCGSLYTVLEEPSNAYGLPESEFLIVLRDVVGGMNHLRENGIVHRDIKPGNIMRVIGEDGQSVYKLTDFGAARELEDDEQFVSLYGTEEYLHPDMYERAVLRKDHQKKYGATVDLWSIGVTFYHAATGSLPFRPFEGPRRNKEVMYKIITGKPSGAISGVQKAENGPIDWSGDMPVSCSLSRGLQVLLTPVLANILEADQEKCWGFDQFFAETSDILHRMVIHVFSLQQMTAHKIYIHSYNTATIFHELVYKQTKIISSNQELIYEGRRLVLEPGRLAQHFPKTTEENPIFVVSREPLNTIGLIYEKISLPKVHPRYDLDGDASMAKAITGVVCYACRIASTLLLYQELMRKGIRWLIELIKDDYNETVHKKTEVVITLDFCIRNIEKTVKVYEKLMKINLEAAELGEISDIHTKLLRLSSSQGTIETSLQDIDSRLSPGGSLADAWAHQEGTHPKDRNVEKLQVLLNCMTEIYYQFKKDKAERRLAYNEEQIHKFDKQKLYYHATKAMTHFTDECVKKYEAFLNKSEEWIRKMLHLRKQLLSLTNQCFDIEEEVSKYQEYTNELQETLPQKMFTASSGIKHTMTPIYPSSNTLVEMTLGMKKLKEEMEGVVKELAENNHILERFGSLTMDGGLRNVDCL
Put plainly: Inhibition of TBK1 (unknown origin) after 60 mins by TR-FRET assay.

The target of the next data set is Activated CDC42 kinase 1 (Homo sapiens, UniProt Q07912). Put plainly: Inhibition of TNK2 (unknown origin) after 60 mins by TR-FRET assay.
For data set [14], the target named is High affinity nerve growth factor receptor (Homo sapiens, UniProt P04629). Briefly: Inhibition of TRKA (unknown origin) after 60 mins by TR-FRET assay.
The target in data set [15] is T2, Dual specificity protein kinase TTK (Homo sapiens, UniProt P33981).
T2 sequence (P33981 whole entry): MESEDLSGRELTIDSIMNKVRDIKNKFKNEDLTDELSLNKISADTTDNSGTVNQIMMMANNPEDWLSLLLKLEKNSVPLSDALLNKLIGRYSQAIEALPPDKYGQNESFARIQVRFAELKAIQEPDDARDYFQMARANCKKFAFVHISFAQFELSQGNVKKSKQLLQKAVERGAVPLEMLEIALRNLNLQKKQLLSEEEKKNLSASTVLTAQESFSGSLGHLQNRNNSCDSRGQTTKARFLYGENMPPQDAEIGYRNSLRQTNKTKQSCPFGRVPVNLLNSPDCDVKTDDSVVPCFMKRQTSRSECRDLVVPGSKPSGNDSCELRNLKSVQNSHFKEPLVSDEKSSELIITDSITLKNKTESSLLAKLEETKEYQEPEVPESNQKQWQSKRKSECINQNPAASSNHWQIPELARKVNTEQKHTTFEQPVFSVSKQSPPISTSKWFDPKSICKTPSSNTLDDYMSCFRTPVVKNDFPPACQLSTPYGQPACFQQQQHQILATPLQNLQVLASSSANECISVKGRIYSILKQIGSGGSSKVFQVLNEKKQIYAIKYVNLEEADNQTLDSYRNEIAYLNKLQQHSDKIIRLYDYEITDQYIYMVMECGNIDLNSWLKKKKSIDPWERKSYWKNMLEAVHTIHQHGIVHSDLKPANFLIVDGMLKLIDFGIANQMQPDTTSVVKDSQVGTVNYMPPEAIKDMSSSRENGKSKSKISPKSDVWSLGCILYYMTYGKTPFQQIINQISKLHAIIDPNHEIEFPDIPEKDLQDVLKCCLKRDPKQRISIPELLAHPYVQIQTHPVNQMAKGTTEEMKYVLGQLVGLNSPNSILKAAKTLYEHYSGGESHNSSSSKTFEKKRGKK
Briefly: Inhibition of TTK (unknown origin) after 60 mins by TR-FRET assay.

Data set [16] has as its target Tyrosine-protein kinase SYK (Homo sapiens, UniProt P43405).
Description: Inhibition of C-terminal His-tagged Syk catalytic domain (356 to 635 residues) (unknown origin) using biotin-TYR1 as substrate after 60 mins by TR-FRET assay
The target in data set [17] is T3, CYP3A4 (Homo sapiens, UniProt P08684). Put plainly: Inhibition of CYP3A4 in human liver microsomes assessed as residual activity at 50 uM measured immediately relative to control. The note with it: read-out: Activity. In kind it is ADME.
Data set [18] deals with T3, CYP3A4. Briefly: Inhibition of CYP3A4 in human liver microsomes assessed as residual activity at 10 uM measured after 30 mins relative to control. In kind it is ADME. Conditions: read-out: Activity. (Liver microsomes are a subcellular fraction often used to study metabolism.)
Data set [19] concerns the target T3, CYP3A4. Briefly: Inhibition of CYP3A4 in human liver microsomes assessed as residual activity at 50 uM measured after 30 mins relative to control. Format: ADME. The note with it: read-out: Activity.
Data set [20] deals with Serine/threonine-protein kinase 16 (Homo sapiens, UniProt O75716). Put plainly: Inhibition of STK16 (unknown origin) after 60 mins by TR-FRET assay.

What is called IC50 is the midpoint of a concentration-inhibition curve.

Calcium/calmodulin-dependent protein kinase type 1D, sequence (Q8IU85 whole entry): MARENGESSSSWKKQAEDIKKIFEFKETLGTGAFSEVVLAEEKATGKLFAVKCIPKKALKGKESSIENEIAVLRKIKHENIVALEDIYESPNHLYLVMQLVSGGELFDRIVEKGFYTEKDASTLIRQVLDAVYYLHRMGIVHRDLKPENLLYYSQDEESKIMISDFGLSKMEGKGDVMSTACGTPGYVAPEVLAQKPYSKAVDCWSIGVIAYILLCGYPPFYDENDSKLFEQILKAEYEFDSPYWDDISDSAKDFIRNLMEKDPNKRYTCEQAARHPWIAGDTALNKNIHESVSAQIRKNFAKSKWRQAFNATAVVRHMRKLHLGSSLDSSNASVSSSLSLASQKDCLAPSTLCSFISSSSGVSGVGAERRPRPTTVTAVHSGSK
Cyclin-dependent kinase 9, sequence (P50750 whole entry): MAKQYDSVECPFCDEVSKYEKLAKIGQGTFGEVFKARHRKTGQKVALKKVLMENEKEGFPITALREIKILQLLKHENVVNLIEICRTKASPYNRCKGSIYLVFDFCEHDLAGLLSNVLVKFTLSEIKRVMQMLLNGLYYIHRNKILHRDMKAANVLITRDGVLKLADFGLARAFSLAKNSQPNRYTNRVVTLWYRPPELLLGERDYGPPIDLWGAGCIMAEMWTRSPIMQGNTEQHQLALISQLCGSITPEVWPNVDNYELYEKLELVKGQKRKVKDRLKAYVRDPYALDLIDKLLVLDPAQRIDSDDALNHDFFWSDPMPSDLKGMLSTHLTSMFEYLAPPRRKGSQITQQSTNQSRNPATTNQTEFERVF
Focal adhesion kinase 1, sequence (Q05397 whole entry): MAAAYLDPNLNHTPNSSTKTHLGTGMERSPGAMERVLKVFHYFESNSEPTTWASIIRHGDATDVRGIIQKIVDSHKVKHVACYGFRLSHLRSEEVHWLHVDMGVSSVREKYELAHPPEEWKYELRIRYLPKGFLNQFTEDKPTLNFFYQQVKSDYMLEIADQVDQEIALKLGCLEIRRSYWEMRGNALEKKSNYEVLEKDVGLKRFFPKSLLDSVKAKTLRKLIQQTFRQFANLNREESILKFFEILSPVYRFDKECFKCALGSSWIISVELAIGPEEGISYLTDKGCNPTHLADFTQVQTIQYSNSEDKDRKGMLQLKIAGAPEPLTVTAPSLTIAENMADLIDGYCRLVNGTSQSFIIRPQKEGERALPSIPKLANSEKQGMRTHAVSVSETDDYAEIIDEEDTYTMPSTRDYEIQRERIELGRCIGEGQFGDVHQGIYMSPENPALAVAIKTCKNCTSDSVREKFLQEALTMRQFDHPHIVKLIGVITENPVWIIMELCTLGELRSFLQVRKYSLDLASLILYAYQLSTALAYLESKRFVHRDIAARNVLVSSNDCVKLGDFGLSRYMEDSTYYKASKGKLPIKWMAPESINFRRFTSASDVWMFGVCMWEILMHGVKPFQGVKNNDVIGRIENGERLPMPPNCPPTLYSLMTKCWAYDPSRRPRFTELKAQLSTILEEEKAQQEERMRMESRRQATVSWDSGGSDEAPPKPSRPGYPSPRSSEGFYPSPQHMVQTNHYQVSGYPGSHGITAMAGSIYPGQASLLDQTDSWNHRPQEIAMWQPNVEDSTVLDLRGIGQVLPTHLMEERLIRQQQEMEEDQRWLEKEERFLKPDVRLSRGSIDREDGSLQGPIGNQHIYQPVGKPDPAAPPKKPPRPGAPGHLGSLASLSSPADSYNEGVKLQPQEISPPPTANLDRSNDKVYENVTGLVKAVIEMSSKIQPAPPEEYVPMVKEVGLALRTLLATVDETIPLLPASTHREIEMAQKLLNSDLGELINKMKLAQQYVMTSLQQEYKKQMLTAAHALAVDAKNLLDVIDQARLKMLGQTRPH
Cyclin-dependent kinase 8, sequence (P49336 whole entry): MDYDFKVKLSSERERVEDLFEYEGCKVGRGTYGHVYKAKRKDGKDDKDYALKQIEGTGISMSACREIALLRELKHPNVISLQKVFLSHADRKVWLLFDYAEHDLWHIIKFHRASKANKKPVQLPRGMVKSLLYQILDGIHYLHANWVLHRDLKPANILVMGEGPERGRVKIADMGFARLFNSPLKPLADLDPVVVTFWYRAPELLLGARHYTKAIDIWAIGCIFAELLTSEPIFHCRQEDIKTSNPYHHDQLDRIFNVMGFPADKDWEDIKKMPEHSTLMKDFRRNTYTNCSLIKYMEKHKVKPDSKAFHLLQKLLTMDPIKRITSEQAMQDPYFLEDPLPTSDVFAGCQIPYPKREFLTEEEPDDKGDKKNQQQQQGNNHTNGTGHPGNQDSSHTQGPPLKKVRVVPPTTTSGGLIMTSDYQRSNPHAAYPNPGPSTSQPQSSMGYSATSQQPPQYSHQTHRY
Dual specificity tyrosine-phosphorylation-regulated kinase 1B, sequence (Q9Y463 whole entry): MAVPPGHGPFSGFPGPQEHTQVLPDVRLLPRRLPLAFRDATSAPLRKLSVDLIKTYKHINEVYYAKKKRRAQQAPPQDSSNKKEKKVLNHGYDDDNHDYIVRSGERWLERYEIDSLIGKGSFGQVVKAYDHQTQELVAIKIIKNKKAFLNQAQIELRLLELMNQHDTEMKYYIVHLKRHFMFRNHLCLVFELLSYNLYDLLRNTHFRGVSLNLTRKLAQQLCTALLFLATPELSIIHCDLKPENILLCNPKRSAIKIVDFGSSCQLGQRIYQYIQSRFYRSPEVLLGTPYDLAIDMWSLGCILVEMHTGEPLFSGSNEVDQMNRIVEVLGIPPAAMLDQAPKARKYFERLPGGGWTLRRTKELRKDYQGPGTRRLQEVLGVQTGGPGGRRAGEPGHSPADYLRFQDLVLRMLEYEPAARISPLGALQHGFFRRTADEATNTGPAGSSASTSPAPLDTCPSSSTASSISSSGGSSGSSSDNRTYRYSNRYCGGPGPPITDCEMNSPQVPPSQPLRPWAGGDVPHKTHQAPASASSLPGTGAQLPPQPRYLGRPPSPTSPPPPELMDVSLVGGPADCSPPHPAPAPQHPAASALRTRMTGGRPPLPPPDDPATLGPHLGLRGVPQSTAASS
Rho-associated protein kinase 2, sequence (O75116 whole entry): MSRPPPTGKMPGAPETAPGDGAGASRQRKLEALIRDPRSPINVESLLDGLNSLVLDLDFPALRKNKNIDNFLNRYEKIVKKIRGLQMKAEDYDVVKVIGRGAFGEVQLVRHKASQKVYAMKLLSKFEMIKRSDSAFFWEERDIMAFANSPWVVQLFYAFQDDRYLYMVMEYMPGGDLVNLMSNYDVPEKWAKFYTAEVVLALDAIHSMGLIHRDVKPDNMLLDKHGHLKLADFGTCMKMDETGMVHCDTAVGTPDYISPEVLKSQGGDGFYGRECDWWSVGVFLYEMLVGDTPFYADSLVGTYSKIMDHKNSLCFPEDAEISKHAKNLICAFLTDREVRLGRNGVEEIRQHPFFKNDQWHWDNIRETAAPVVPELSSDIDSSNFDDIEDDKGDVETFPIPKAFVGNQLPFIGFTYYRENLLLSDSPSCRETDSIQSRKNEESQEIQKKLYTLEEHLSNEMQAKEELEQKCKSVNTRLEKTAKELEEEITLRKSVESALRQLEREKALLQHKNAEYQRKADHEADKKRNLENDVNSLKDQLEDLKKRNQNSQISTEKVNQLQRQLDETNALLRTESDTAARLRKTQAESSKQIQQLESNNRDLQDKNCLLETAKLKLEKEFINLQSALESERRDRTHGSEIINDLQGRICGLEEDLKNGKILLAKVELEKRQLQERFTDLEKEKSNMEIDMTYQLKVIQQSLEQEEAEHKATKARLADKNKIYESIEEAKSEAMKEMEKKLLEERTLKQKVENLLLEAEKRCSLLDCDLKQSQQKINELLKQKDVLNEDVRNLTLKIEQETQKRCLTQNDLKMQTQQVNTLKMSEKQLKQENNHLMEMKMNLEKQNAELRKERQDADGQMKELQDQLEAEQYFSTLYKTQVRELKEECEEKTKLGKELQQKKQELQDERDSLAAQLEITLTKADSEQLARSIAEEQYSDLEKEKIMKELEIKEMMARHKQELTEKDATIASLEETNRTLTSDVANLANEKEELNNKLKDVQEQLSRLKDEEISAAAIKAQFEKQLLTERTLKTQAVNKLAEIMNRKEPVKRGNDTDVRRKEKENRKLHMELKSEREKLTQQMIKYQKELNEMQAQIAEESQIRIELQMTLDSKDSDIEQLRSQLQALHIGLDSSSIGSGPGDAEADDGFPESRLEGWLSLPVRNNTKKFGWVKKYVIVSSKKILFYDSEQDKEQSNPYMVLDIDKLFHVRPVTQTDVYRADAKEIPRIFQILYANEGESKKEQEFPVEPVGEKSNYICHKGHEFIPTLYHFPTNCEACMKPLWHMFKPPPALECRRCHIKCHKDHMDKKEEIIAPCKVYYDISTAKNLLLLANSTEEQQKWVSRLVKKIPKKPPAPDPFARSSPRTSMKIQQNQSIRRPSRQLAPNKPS
Tyrosine-protein kinase BTK, sequence (Q06187 whole entry): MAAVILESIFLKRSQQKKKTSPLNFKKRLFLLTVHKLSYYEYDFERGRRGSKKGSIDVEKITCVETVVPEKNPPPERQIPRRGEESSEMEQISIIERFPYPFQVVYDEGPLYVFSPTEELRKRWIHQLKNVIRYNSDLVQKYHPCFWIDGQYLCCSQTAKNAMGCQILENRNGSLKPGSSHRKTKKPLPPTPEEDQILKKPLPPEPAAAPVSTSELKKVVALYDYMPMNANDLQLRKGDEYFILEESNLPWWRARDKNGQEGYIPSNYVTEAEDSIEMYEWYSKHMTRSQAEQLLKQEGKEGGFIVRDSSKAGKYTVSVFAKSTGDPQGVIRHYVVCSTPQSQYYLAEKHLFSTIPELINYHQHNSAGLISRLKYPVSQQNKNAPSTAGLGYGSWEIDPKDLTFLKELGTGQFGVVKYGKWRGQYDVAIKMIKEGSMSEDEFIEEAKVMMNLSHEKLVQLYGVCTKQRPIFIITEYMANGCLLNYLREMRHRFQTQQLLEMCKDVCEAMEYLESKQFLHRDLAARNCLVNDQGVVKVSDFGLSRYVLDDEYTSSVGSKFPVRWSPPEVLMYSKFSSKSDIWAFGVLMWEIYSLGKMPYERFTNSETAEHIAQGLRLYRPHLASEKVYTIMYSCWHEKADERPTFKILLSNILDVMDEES

For the compound `FC(F)(F)CNc1nc(Nc2ccc(N3CCOCC3)c(Cl)c2)nc2ccoc12`, in [1], the CL free is 1600 mL/min/kg. Besides, the IC50 in data set [2] is 2.75 µM; in data set [3] it was more than 10 µM; in data set [4], more than 10 µM; in [5], more than 10 µM; in [6], more than 10 µM; in data set [7] it was more than 10 µM. Besides, the IC50 (in [8]; in [9]; on Focal adhesion kinase 1; in data set [10]; in data set [11]; in data set [12]) was more than 10 µM in each case. The IC50 in [13] is more than 10 µM; on Activated CDC42 kinase 1, 4.02 µM; in data set [14] it was more than 10 µM; in data set [15], 1.84 µM; in data set [16], 0.061 µM.

For `FC(F)(F)CNc1nc(Nc2ccc3cn[nH]c3c2)nc2ccoc12`, the CL free in data set [1] was found to be 255 mL/min/kg. For the same compound, the IC50 in data set [3] is 7.63 µM; in data set [4], more than 10 µM; in [5] it was more than 10 µM; in data set [6], more than 10 µM; in data set [7], 2.11 µM; in data set [8], more than 10 µM. The IC50 against Focal adhesion kinase 1 is more than 10 µM; in [10], 8.12 µM; in data set [11] it was 9.36 µM; in [13] it was more than 10 µM; at Activated CDC42 kinase 1 it was 3.46 µM; in data set [14] it was more than 10 µM. Also, half-maximal inhibition in data set [16] (IC50) was put at 0.081 µM.

`Cc1n[nH]c2cc(Nc3nc(NC4CC4)c4occc4n3)ccc12`: the activity at 0 min, 50 µM on CYP3A4 [17] was found to be 87%. The activity at 0.5 h, 10 µM on CYP3A4 [18] was 51%. Also, the activity at 0.5 h, 50 µM at CYP3A4 [19] was determined as 28%. Moreover, the IC50 in data set [4], in data set [5], in [6], in data set [7], in [8] and in data set [9] was more than 10 µM each time. Also, the IC50 was 9.96 µM in data set [10]; more than 10 µM in [11]; more than 10 µM in data set [12]; 4.5 µM in data set [20]; more than 10 µM in data set [13]; 1.32 µM on Activated CDC42 kinase 1. For the same compound, the IC50 was more than 10 µM in [14] and 2.16 µM in data set [15].

With `CC1(C)OCC(=O)Nc2cc(Nc3nc(NCC(F)(F)F)c4occc4n3)ccc21`, the CL free in [1] was less than 81.7 mL/min/kg. Besides, the activity at 0 min, 50 µM at CYP3A4 [17] came out at 92%. Further, on CYP3A4 [18], the activity at 0.5 h, 10 µM amounted to 81%. The activity at 0.5 h, 50 µM at CYP3A4 [19] came to 75%. The IC50 was 0.408 µM in [2]; more than 10 µM in data set [3]; 5.02 µM in [4]; more than 10 µM in [5]; more than 10 µM in data set [6]; more than 10 µM in [7]. The IC50 in [8] was more than 10 µM; in [9], more than 10 µM; on Focal adhesion kinase 1 it was 5.5 µM; in data set [10], more than 10 µM; in [11], more than 10 µM; in data set [12], 6.32 µM. In addition, the IC50 is 0.885 µM in data set [20], 7.61 µM in data set [13], 1.33 µM against Activated CDC42 kinase 1 and 5.4 µM in data set [14].

The values above are taken from ChEMBL document CHEMBL4007384, “Synthesis and optimization of furano[3,2-d]pyrimidines as selective spleen tyrosine kinase (Syk) inhibitors” (Bioorg Med Chem Lett, 2016).
